tested on: HCV 1b-377-neo replicon cells; assay: HCV replicon assay, HCV 1b-377-neo replicon cells (1b FRET); format: cell-based, Hepatitis C virus genotype 1b; settings: HCV 1b-377-neo replicon cells; HCV 1b genotype; read-out: EC50 range against HCV 1b (Table 2, Range)
Method in brief: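 Compounds were tested in genotype 1b subgenomic replicon cells carrying a neomycin marker, alongside a matched replicon line with an NS5A Y2065H substitution that confers resistance to a reference NS5A inhibitor.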

Structure (SMILES)	EC50
COC(=O)N[C@@H](C(=O)N1CCC[C@H]1c1ncc(-c2ccc(-c3ccc(-c4cnc([C@@H]5CCCN5C(=O)[C@H]5CCN(Cc6ccccc6)C5)[nH]4)cc3)cc2)[nH]1)c1ccccc1 [Example 84-28]	0.001 to 0.999 nM

same assay, conditions: Hepatitis C virus, HCV 1b-377-neo replicon cells; HCV 1b genotype; read-out: EC50 range against HCV 1b (Table 2, Range)

Structure (SMILES)	EC50
COC(=O)N[C@@H](C(=O)N1CCC[C@H]1c1ncc(-c2ccc(-c3ccc(-c4cnc([C@@H]5CCCN5C(=O)C5CN(C(=O)OC(C)(C)C)C5)[nH]4)cc3)cc2)[nH]1)c1ccccc1 [Example 84-27, tert-butyl 3-(((2S)-2-(5-(4′-(2-((2S)-1-((2R)-2-((methoxycarbonyl)amino)-2-phenylacetyl)-2-pyrrolidinyl)-1H-imidazol-5-yl)-4-biphenylyl)-1H-imidazol-2-yl)-1-pyrrolidinyl)carbonyl)-1-azetidinecarboxylate]	0.001 to 0.999 nM
O=C([C@H](O)c1ccccc1)N1CCC[C@H]1c1ncc(-c2ccc(-c3ccc(-c4cnc([C@@H]5CCCN5C(=O)[C@H](O)c5ccccc5)[nH]4)cn3)cc2)[nH]1 [Example 133, (1R)-2-((2S)-2-(5-(6-(4-(2-((2S)-1-((2R)-2-hydroxy-2-phenylacetyl)-2-pyrrolidinyl)-1H-imidazol-5-yl)phenyl)-3-pyridinyl)-1H-imidazol-2-yl)-1-pyrrolidinyl)-2-oxo-1-phenylethanol]	1 to 99 nM
CN(C)[C@@H](C(=O)N1CCC[C@H]1c1ncc(-c2ccc(-c3ccc(-c4cnc([C@@H]5CCCN5C(=O)N5CCCC5)[nH]4)cc3)cc2)[nH]1)c1ccccc1 [Example 94, (1R)-N,N-dimethyl-2-oxo-1-phenyl-2-((2S)-2-(5-(4′-(2-((2S)-1-(1-pyrrolidinylcarbonyl)-2-pyrrolidinyl)-1H-imidazol-5-yl)-4-biphenylyl)-1H-imidazol-2-yl)-1-pyrrolidinyl)ethanamine]	0.001 to 0.999 nM
CN(C)[C@@H](C(=O)N1CCC[C@H]1c1ncc(-c2ccc(-c3ccc(-c4cnc([C@@H]5CCCN5C(=O)[C@H]5CCCCN5C(=O)OC(C)(C)C)[nH]4)cc3)cc2)[nH]1)c1ccccc1 [Example 94-20, tert-butyl (2R)-2-(((2S)-2-(5-(4′-(2-((2S)-1-((2R)-2-(dimethylamino)-2-phenylacetyl)-2-pyrrolidinyl)-1H-imidazol-5-yl)-4-biphenylyl)-1H-imidazol-2-yl)-1-pyrrolidinyl)carbonyl)-1-piperidinecarboxylate]	1 to 99 nM
CC(=O)N1CCC[C@H]1c1ncc(-c2ccc(-c3ccc(-c4cnc([C@@H]5CCCN5C(=O)[C@@H](c5ccccc5)N5CCCCC5)[nH]4)cc3)cc2)[nH]1 [Example 107-29, 1-1((1R)-2-((2S)-2-(5-(4′-(2-((2S)-1-acetyl-2-pyrrolidinyl)-1H-imidazol-5-yl)-4-biphenylyl)-1H-imidazol-2-yl)-1-pyrrolidinyl)-2-oxo-1-phenylethyl) piperidine]	0.001 to 0.999 nM
CCN(CC)[C@@H](C(=O)N1CCC[C@H]1c1ncc(-c2ccc(-c3ccc(-c4cnc([C@@H]5CCCN5C(=O)[C@@H]5CC[C@H](NC(=O)OC)C5)[nH]4)cc3)cc2)[nH]1)c1ccccc1 [cj-57, methyl ((1S,3R)-3-(((2S)-2-(5-(4′-(2-((2S)-1-((2R)-2-(diethylamino)-2-phenylacetyl)-2-pyrrolidinyl)-1H-imidazol-5-yl)-4-biphenylyl)-1H-imidazol-2-yl)-1-pyrrolidinyl)carbonyl)cyclopentyl)carbamate]	0.001 to 0.999 nM
COC(=O)NC(C(=O)N1CCC[C@H]1c1nc(-c2ccc(-c3ccc(-c4cnc([C@@H]5CCCN5C(=O)C(NC(=O)OC)C5CCOCC5)[nH]4)cc3)cc2)c[nH]1)C1CCOCC1 (stereo partly drawn) [Example F39, methyl (2-((2S)-2-(4-(4′-(2-((2S)-1-(((methoxycarbonyl)amino)(tetrahydro-2H-pyran-4-yl)acetyl)-2-pyrrolidinyl)-1H-imidazol-5-yl)-4-biphenylyl)-1H-imidazol-2-yl)-1-pyrrolidinyl)-2-oxo-1-(tetrahydro-2H-pyran-4-yl)ethyl)carbamate]	0.001 to 0.999 nM
COC(=O)N[C@@H](Cc1cscn1)C(=O)N1CCC[C@H]1c1ncc(-c2ccc(-c3ccc(-c4cnc([C@@H]5CCCN5C(=O)[C@@H](NC(=O)OC)C(C)C)[nH]4)cc3)cc2)[nH]1 [cj-79, methyl ((1S)-1-(((2S)-2-(5-(4′-(2-((2S)-1-((2S)-2-((methoxycarbonyl)amino)-3-(1,3-thiazol-4-yl)propanoyl)-2-pyrrolidinyl)-1H-imidazol-5-yl)-4-biphenylyl)-1H-imidazol-2-yl)-1-pyrrolidinyl)carbonyl)-2-methylpropyl)carbamate]	0.001 to 0.999 nM
CCN(CC)[C@@H](C(=O)N1CCC[C@H]1c1ncc(-c2ccc(-c3ccc(-c4cnc([C@@H]5CC(F)(F)CN5C(=O)[C@@H](c5ccccc5)N(CC)CC)[nH]4)cc3)cc2)[nH]1)c1ccccc1 (mixture of isomers) [OL-13, rac-(1R)-2-((2S)-2-(4-(4′-(2-((2S)-1-((2R)-2-(diethylamino)-2-phenylacetyl)-4,4-difluoro-2-pyrrolidinyl)-1H-imidazol-4-yl)-4-biphenylyl)-1H-imidazol-2-yl)-1-pyrrolidinyl)-N,N-diethyl-2-oxo-1-phenylethanamine]	0.001 to 0.999 nM
COC(=O)N[C@@H](C)C(=O)N1CCC[C@H]1c1ncc(-c2ccc(-c3ccc(-c4cnc([C@@H]5CCCN5C(=O)[C@@H]5CC(=O)N5)[nH]4)cc3)cc2)[nH]1 [cj-48]	100 to 999 nM
COC(=O)N[C@H]1CC[C@@H](C(=O)N2CCC[C@H]2c2ncc(-c3ccc(-c4ccc(-c5cnc([C@@H]6CCCN6C(=O)[C@H]6CC[C@@H](NC(=O)OC)CC6)[nH]5)cc4)cc3)[nH]2)CC1 [cj-150, dimethyl (4,4′-biphenyldiylbis(1H-imidazole-5,2-diyl(2S)-2,1-pyrrolidinediylcarbonylcis-4,1-cyclohexanediyl))biscarbamate]	1 to 99 nM
CCN(CC)[C@@H](C(=O)N1CCC[C@H]1c1ncc(-c2ccc(-c3ccc(-c4cnc([C@@H]5CCCN5C(=O)[C@@H]5CCN5C(=O)OC)[nH]4)cc3)cc2)[nH]1)c1ccccc1 [cj-50, methyl (2S)-2-(((2S)-2-(5-(4′-(2-((2S)-1-((2R)-2-(diethylamino)-2-phenylacetyl)-2-pyrrolidinyl)-1H-imidazol-5-yl)-4-biphenylyl)-1H-imidazol-2-yl)-1-pyrrolidinyl)carbonyl)-1-azetidinecarboxylate]	0.001 to 0.999 nM
COC(=O)N[C@@H](C(=O)N1CCC[C@H]1c1ncc(-c2ccc(-c3ccc(-c4cnc([C@@H]5CCCN5C(=O)Cc5cccnc5)[nH]4)cc3C)cc2)[nH]1)c1ccccc1 [Example 127, methyl ((1R)-2-((2S)-2-(5-(2′-methyl-4′-(2-((2S)-1-(3-pyridinylacetyl)-2-pyrrolidinyl)-1H-imidazol-5-yl)-4-biphenylyl)-1H-imidazol-2-yl)-1-pyrrolidinyl)-2-oxo-1-phenylethyl)carbamate]	0.001 to 0.999 nM
CN[C@@H](CC(C)C)C(=O)N1CCC[C@H]1c1nc(-c2ccc(-c3ccc(-c4cnc([C@@H]5CCCN5C(=O)[C@H](CC(C)C)NC)[nH]4)cc3)cc2)c[nH]1 [Example F32, (2S)-N,4-dimethyl-1-((2S)-2-(4-(4′-(2-((2S)-1-((2S)-4-methyl-2-(methylamino)pentanoyl)-2-pyrrolidinyl)-1H-imidazol-5-yl)-4-biphenylyl)-1H-imidazol-2-yl)-1-pyrrolidinyl)-1-oxo-2-pentanamine]	100 to 999 nM
CCN(CC)[C@H](C)C(=O)N1CCC[C@H]1c1ncc(-c2ccc(-c3ccc(-c4cnc([C@@H]5CCCN5C(=O)[C@H](NC(=O)OC)c5ccccc5)[nH]4)cc3)cc2F)[nH]1 [Example D48, methyl ((1R)-2-((2S)-2-(5-(4′-(2-((2S)-1-(N,N-diethyl-D-alanyl)-2-pyrrolidinyl)-1H-imidazol-5-yl)-3′-fluoro-4-biphenylyl)-1H-imidazol-2-yl)-1-pyrrolidinyl)-2-oxo-1-phenylethyl)carbamate]	0.001 to 0.999 nM
CN(C)[C@@H](C(=O)N1CCC[C@H]1c1ncc(-c2ccc(-c3ccc(-c4cnc([C@@H]5CCCN5C(=O)Cc5ccc(F)cc5)[nH]4)cc3)cc2)[nH]1)c1ccccc1 [Example 94-53, (1R)-2-((2S)-2-(5-(4′-(2-((2S)-1-((4-fluorophenyl)acetyl)-2-pyrrolidinyl)-1H-imidazol-5-yl)-4-biphenylyl)-1H-imidazol-2-yl)-1-pyrrolidinyl)-N,N-dimethyl-2-oxo-1-phenylethanamine]	0.001 to 0.999 nM
COC(=O)N[C@@H](C(=O)N[C@@H](C)c1ncc(-c2ccc(-c3ncc(-c4cnc([C@@H]5CCCN5C(=O)[C@H](NC(=O)OC)c5ccccc5)[nH]4)cn3)cc2)[nH]1)c1ccccc1 [Example 152j-15, methyl ((1R)-2-((2S)-2-(5-(2-(4-(2-((1S)-1-(((2R)-2-((methoxycarbonyl)amino)-2-phenylacetyl)amino)ethyl)-1H-imidazol-5-yl)phenyl)-5-pyrimidinyl)-1H-imidazol-2-yl)-1-pyrrolidinyl)-2-oxo-1-phenylethyl)carbamate]	0.001 to 0.999 nM
COC(=O)N[C@H]1CC[C@@H](C(=O)N2CCC[C@H]2c2ncc(-c3ccc(-c4ccc(-c5cnc([C@@H]6CCCN6C(=O)[C@H](NC(=O)OC)c6ccccc6)[nH]5)cc4)cc3)[nH]2)C1 [cj-63, methyl ((1R)-2-((2S)-2-(5-(4′-(2-((2S)-1-(((1R,3S)-3-((methoxycarbonyl)amino)cyclopentyl)carbonyl)-2-pyrrolidinyl)-1H-imidazol-5-yl)-4-biphenylyl)-1H-imidazol-2-yl)-1-pyrrolidinyl)-2-oxo-1-phenylethyl)carbamate]	0.001 to 0.999 nM
COC(=O)N[C@@H](C(=O)N[C@@H](C)c1ncc(-c2cnc(-c3ccc(-c4cnc([C@@H]5CCCN5C(=O)[C@H](NC(=O)OC)c5ccccc5)[nH]4)cc3)cn2)[nH]1)c1ccccc1 [Example 152j-19, methyl ((1R)-2-((2S)-2-(5-(4-(5-(2-((1S)-1-(((2R)-2-((methoxycarbonyl)amino)-2-phenylacetyl)amino)ethyl)-1H-imidazol-5-yl)-2-pyrazinyl)phenyl)-1H-imidazol-2-yl)-1-pyrrolidinyl)-2-oxo-1-phenylethyl)carbamate]	0.001 to 0.999 nM

Reference: US8574563B2 (Bristol-Myers Squibb Company, priority 2006, dated 2013)
